Measurements published in patent publication US20160008339A1, “PSORALEN DERIVATIVES FOR PREVENTING OR TREATING HEART FAILURE OR CARDIAC HYPERTROPHY” (MAX-DELBRUCK-CENTRUM FUR MOLEKULARE MEDIZIN, priority 2012, published 2016).

Molecular target: T1, AKAP-Lbc (guanine nucleotide exchange on RhoA) (Homo sapiens, UniProt Q12802)
T1 sequence (Q12802 1994-2333): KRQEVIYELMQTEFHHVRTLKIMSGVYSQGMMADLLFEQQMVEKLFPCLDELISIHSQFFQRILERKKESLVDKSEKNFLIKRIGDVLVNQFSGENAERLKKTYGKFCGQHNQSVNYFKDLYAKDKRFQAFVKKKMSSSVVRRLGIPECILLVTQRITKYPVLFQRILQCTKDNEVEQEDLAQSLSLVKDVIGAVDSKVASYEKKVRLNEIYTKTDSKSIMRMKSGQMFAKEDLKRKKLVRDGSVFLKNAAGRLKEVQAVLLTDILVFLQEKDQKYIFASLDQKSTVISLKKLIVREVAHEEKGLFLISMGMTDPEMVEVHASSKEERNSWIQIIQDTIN
Experiment: RhoGEF nucleotide exchange assay (GDP against mGTP on RhoA)
Conditions: IC50 (fifty percent inhibition of nucleotide exchange), 15 min
Experimental: Following the protocol of the RhoGEF exchange assay Biochem Kit, a nucleotide exchange experiment for AKAP-Lbc and RhoA was established. The fluorescence labelled nucleotide analogues 2′(3′)-O—(N-methylanthraniloyl)-guanosine diphosphate and 2′(3′)-O—(N-methylanthraniloyl)-guanosine triphosphate, hereinafter referred to mGDP and mGTP, were used for tracing the nucleotide exchange.
25 μl depletion buffer (100 mmol/L sodium phosphate, pH 7.4, 5 mmol/L EDTA, 200 mmol/L ammonium sulfate) with an excess of mGDP (5 mmol/L) were added to 200 μg recombinant his6-RhoA (25 μl) and incubated one hour at room temperature. Then, magnesium chloride (MgCl2) was added to a final concentration of 10 mmol/L.
By centrifugation with Vivaspin® 500 concentrator vials (MWCO 5 kDa, 10 min, 10000 rpm) and buffer (100 mmol/L sodium phosphate, pH 7.4, 100 mmol/L NaCl, protease inhibitor [cOmplete, Mini, EDTA-free protease inhibitor cocktaile]) RhoA-mGDP was washed twice and reduced to 100 μl. 1 μmol/L RhoA-mGDP and 0.5 μmol/L AKAP-Lbc DHPH in nucleotide exchange buffer (40 mmol/L Tris pH 7.5; 100 mmol/L NaCl; 20 mmol/L MgCl2, 100 μg/ml BSA) were used for the nucleotide exchange. The fluorescence measurements were performed in a micro plate reader (TECAN Safire) over a period of 15 min, whereby the fluorophore of mGDP was excited at 360 nm and the resulting fluorescence signal was determined at 440 nm.
At a concentration relation of 2 μmol/L protein and 1 μmol/L mGTP, an ideal fluorescence signal-to-noise-ratio was found in the nucleotide exchange buffer (40 mM Tris pH 7.5, 100 mmol/L NaCl, 20 mmol/L MgCl2, 100 μg/ml BSA). The fluorescence signal for mGTP was measured analogous to mGDP (λexc=360 nm; λem=440 nm) in a micro plate reader (TECAN Safire) over a period of 15 min. The experiment was performed in a 384-well plate.

`COc1ccc(-c2coc3cc4oc(=O)c(C)c(C)c4cc23)cc1` [Compound 31413, 3-(4-methoxyphenyl)-5,6-dimethyl-furo[3,2-g]chromen-7-one] showed an IC50 of 25.9 µM.
